# US20040043959A1, “Combination therapies for treating methylthioadenosine phosphorylase deficient cells” (priority 2002, published 2004)
# Like-named read-outs stand apart in the source and are kept apart here.
# Columns and labels:
# [1] = tested on: MTAP-competent NCI-H460 cells; assay: MTT growth inhibition by Compound 1 or 3 with and without MTA; type: cell-based, human; conditions: FIG. 7
# Experimental: (§1) Cells were plated in columns 2-12 of a 96-well microtiter plate, with column 2 designated as the vehicle control. The same volume of medium was added to column 1. Column 1 was designated as the media control. After a 4-hour incubation, the cells were treated with Compound 7, with or without a non-growth inhibitory concentration of MTA, in quadruplicate wells. […] MTT (4,5-dimethylthiazol-2-yl)-2,5-diphenyl tetrazolium bromide; Sigma, St. Louis, Mo.) was added to a final concentration of 0.25-1 mg/ml in each well, and the plates were incubated for 4 hours. The liquid was removed from each well. DMSO was added to each well, then the plates were vortexed slowly in the dark for 7-20 minutes. The formazin product was quantified spectrophotometrically at […] on a Molecular Devices Vmax™ kinetic microplate reader.
# [2] = target: T1, human membrane folate-binding protein (mFBP) (Homo sapiens, UniProt P15328); assay: competitive binding assay against 3H-folic acid with mFBP prepared from KB cells
# T1 construct: mFBP prepared from cultured KB cells (human nasopharyngeal carcinoma cells); endogenous in cells
# T1 sequence (P15328 25-234): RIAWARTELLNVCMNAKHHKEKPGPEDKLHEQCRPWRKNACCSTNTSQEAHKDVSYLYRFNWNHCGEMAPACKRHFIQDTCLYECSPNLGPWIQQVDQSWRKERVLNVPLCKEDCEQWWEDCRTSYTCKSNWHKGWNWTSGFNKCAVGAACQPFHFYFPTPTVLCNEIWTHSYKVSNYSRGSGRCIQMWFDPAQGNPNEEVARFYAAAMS
# Description: The dissociation constant (Kd) of the preferred inhibitors of the present invention for human membrane folate-binding protein (mFBP) can be determined in a competitive binding assay using mFBP prepared from cultured KB cells (human nasopharyngeal carcinoma cells) as disclosed in U.S. Pat. No. 5,646,141, the disclosures of which is hereby incorporated by reference in its entirety.
# Human membrane folate binding protein can be obtained from KB cells by methods well known in the art. KB cells are washed, sonicated for cell lysis and centrifuged to form pelleted cells. The pellet can then be stripped of endogenous bound folate by resuspension in acidic buffer (KH2PO4—KOH and 2-mercaptoethanol) and centrifuged again. The pellet is then resuspended and the protein content quantitated using the Bradford method with bovine serum albumin (BSA) as standard.
# Disassociation constants are determined by allowing, the test inhibitor to compete against ^3H-folic acid for binding to mFBP. Reaction mixtures are designed to generally contain mFBP, ^3H-folic acid, and various concentrations of the subject test inhibitor in acidic buffer (KH2PO4—KOH and 2-mercaptoethanol). The competition reaction is typically conducted at 25°. Because of the slow nature of release of bound ^3H-folic acid, the test inhibitor may be prebound prior to addition of bound ^3H-folic acid, after which the reaction should be allowed to equilibriate. The full reaction mixtures then should be drawn through nitrocellulose filters to isolate the cell membranes with bound ^3H-folic acid. The trapped mFBP are then washed and measured by scintillation counting. The data can then be nonlinearly fitted as described above in determining Ki. The mFBP Kd for ^3H-folic acid, used for calculating the competitor Kd, can be obtained by directly titrating mFBP with ^3H-folate. The mFBP Kd can then be used to calculate the competitor Kd by nonlinear fitting of the data to an equation for tight-binding Kc. Table 1 below provides the Kd values of several GARFT inhibitors using the assay described above.
# [3] = animal weight loss (toxicity) in BxPC-3 xenograft study; type: in vivo; conditions: 40 mg/kg Compound 7 plus 50 mg/kg MTA versus 2.5 mg/kg Compound 7 alone, folate-deficient diet
# Description: To evaluate the in vivo effect of combination therapy on known human MTAP-deficient tumors, an MTAP-deficient cell line was introduced to mice to produce xenograft MTAP-deficient tumors. 108 BALB/c/nu/nu female mice bearing subcutaneous tumor fragments produced from the MTAP-deficent BxPC-3 cell line were housed 3 per cage with free access to food and water. Mice were fed a folate-deficient chow (#Td84052, Harlan Teklad, Madison, Wis.) beginning 14 days prior to initiation of drug treatment and continuing throughout the study. After randomization by tumor volume into 8 treatment groups and assigning the remaining 12 mice to group 7, beginning on the twenty-first day after tumor implant mice were dosed with Compound 7 daily for 4 days, and with MTA or vehicle twice-a-day for 8 days, in the amounts indicated in Table 7 below. The vehicle for both compounds was 0.75% sodium bicarbonate in water (7.5% NaHCO3 solution (Cellgro #25-035-4, Mediatech, Herndon, Va.) diluted 1:10 in sterile water for injection (Butler, Columbus, Ohio)) under pH adjusted to 7.0-7.4. […] Tumor volumes and animal weight loss, which is an indicator of toxicity, were recorded daily for 14 days at the same time of day, then on a Monday, Wednesday, Friday schedule for the remainder of the study.
# [4] = mouse, in vivo
# Experimental: A series of experiments were undertaken in order to evaluate the in vivo effect of schedule of administration of MTA on reduction of […] induced by […]. BALB/c/nu/nu female mice were housed 3 per cage with free access to food and water. Mice were fed a folate-deficient chow (#Td84052, Harlan-Teklad, Madison, Wis.) for at least 14 days prior to initiation of drug treatment and continuing throughout the study. Animal weight loss, which is a measure of toxicity, was recorded at least daily for 18 days at the same time of day. Table 11 presents a summary of data from multiple experiments, i.e., at least two experiments for each schedule. […] To produce this effect, MTA must be administered at the beginning of treatment with Compound 7 and continuing until after treatment with Compound 7. Further, since the activity of Compound 7 continues for at least a few days after the last dose was administered, to produce an effect MTA must be administered during this period of activity, i.e. for at least 2 days after the last dose of the cytotoxic was administered.
# [5] = target: T1, human membrane folate-binding protein (mFBP); conditions: relative to lometrexol; cited from earlier work
# [6] = tested on: human pancreatic BxPC-3 tumor; assay: antitumor activity in MTAP-deficient xenograft model; type: in vivo, mice
# Description: To evaluate the in vivo effect of combination therapy on known human MTAP-deficient tumors, an MTAP-deficient cell line was introduced to mice to produce xenograft MTAP-deficient tumors. 108 BALB/c/nu/nu female mice bearing subcutaneous tumor fragments produced from the MTAP-deficent BxPC-3 cell line were housed 3 per cage with free access to food and water. Mice were fed a folate-deficient chow (#Td84052, Harlan Teklad, Madison, Wis.) beginning 14 days prior to initiation of drug treatment and continuing throughout the study. After randomization by tumor volume into 8 treatment groups and assigning the remaining 12 mice to group 7, beginning on the twenty-first day after tumor implant mice were dosed with Compound 7 daily for 4 days, and with MTA or vehicle twice-a-day for 8 days, in the amounts indicated in Table 7 below. The vehicle for both compounds was 0.75% sodium bicarbonate in water (7.5% NaHCO3 solution (Cellgro #25-035-4, Mediatech, Herndon, Va.) diluted 1:10 in sterile water for injection (Butler, Columbus, Ohio)) under pH adjusted to 7.0-7.4. Solutions were sterilized by filtration through 0.22 micron polycarboniate filters (Cameo 25GAS, Micron Separations Inc., Westboro, Mass.). Tumor volumes and animal weight loss, which is an indicator of toxicity, were recorded daily for 14 days at the same time of day, then on a Monday, Wednesday, Friday schedule for the remainder of the study.
# GARFT = target: T2, GARFT (Homo sapiens, UniProt P22102); conditions: read-out: Ki (GARFT inhibitor); cited from earlier work
# T2 construct: The GART domain (residues 808-1010) of the trifunctional human GARS-AIRS-GART enzyme was purified; made in house
# T2 sequence (P22102 808-1010): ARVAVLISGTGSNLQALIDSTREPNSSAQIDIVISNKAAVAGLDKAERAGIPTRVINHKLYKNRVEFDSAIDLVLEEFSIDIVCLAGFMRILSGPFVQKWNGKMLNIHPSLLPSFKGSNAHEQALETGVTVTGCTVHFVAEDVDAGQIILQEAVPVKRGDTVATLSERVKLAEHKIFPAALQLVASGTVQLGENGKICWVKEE
# [7] = tested on: MTAP-competent SK-MES-1 non-small cell lung cancer cells; assay: MTT growth inhibition by Compound 7 with and without MTA; type: cell-based, human
# Experimental: All cell lines were purchased from the American Type Culture Collection. All cultures were maintained at 37° C., in 5% air-CO2 atmosphere in a humidified incubator.
# as §1
# AICARFT = target: T3, AICARFT (Homo sapiens, UniProt P31939); conditions: cited from earlier work
# T3 construct: the catalytic domain of the human enzyme and its substrate (i.e., GARFT and GAR, or AICARFT and AICAR)
# T3 sequence (P31939 199-592 limits assumed): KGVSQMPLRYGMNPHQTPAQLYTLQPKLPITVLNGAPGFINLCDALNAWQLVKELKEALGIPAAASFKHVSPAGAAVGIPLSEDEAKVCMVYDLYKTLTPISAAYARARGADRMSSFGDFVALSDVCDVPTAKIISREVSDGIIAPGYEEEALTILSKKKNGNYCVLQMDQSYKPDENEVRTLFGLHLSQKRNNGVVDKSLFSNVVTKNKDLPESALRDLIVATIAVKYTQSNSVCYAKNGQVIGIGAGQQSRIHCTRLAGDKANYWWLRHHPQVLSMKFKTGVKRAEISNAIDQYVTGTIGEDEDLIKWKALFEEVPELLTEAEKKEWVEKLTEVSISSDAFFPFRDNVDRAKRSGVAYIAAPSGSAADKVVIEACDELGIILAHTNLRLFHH
# [8] = tested on: BxPC-3 cells transfected with the MTAP gene; assay: colony formation cytotoxicity, 6 h drug exposure; type: cell-based, human; conditions: 1.5 μM Compound 7 with 50 μM anti-toxicity agent, FIG. 5a
# Experimental: (§2) Cytoxicity data was collected using BxPC-3, PANC-1 and HT-1080 cells which were cultured in Iscove's medium supplemented with 10% dialyzed, horse serum, 5% nonessential amino acids and 5% sodium pyruvate.
# (§3) Mid-log-phase cells were trypsinized and placed in 60 mm tissue culture dishes at 200 or 250 cells per dish. Cells from each cell line were left to attach for 4 hours and then were treated with Compound 7, with or without MTA or dcSAMe, in 5-fold serial dilutions for 6 or 24 hours. For data shown in FIGS. 5a and 5b, cells were exposed to drug(s) for 6 hours only. For data shown in FIG. 6, cells were exposed to Compound 7 for 24 hours and to MTA continuously for the duration of colony growth (i.e. 24 hours and thereafter). Cells were next washed with PBS, and then fixed and stained with 1% w/v crystal violet in 25% methanol (Sigma, St. Louis, Mo.). After washing the dishes 2-3 times. with deionized water, the colonies were counted. Triplicate dishes were used for each drug concentration.
# [9] = tested on: MTAP-competent NCI-H460 cells; assay: colony formation cytotoxicity with varying duration of MTA exposure; type: cell-based, human; conditions: MTA for at least 48 hours, at least 1 day after Compound 7 exposure, FIG. 8
# Experimental: as §3
# Cytoxicity data for combination therapy of Compound 7 with MTA was collected using MTAP-competent […] cells. NCI-H460 cells were cultured, incubated and stained as described in Example 3(B) above, but with an incubation time of up to eight days.
# MTAP-deficient BxPC-3 = assay: colony formation cytotoxicity, 6 h drug exposure; type: cell-based, human; conditions: Compound 7 with 50 μM anti-toxicity agent, FIG. 5b
# Experimental: as §2, §3
# Human MTAP = target: T4, Human MTAP (Homo sapiens, UniProt Q13126); assay: MTAP substrate assay, coupled spectrophotometric (adenine, xanthine oxidase); type: biochemical; conditions: 2 nM MTAP
# T4 construct: six-histidine tag (His6) (N); made in house; host or cells: E. coli BL21 DE3
# T4 sequence (Q13126 1-283): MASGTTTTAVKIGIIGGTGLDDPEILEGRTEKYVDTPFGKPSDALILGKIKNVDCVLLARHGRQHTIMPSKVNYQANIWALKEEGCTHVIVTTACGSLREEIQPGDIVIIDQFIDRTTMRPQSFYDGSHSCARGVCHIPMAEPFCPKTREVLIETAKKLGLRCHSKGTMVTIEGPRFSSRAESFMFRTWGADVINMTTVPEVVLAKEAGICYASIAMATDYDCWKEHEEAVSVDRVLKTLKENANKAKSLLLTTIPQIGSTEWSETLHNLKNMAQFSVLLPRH
# How it was run: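 Detection was xanthine oxidase-coupled (0.8 units/ml), reading adenine-derived absorbance at 305 nm over 10 min in potassium phosphate/DTT buffer at 37° C, with N-His6 enzyme purified from E. coli.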
compound,measurement,setting,value
"Cc1cc(C(=O)N[C@@H](CCC(=O)O)C(=O)O)sc1CC[C@H]1CNc2nc(N)[nH]c(=O)c2S1 (single isomer, unassigned) [Compound 3]",factor by which MTA reduced the growth inhibitory activity,[1],greater than 5
same,Kd,[2],0.0042 nM
"Cc1cc(C(=O)N[C@@H](CCC(=O)O)C(=O)O)sc1CC[C@@H]1CNc2nc(N)[nH]c(=O)c2C1 (single isomer, unassigned) [Compound 7]",reduction in toxicity (weight loss),[3],16 fold
same,Increase in Compound 7 maximum tolerated dose (-fold dose),"[4]; female, BALB/c/nu/nu",4 -fold dose
same,Increase in Compound 7 maximum tolerated dose (-fold dose),[4],None
same,binds less tightly than lometrexol to mFBP,[5],about 1400 fold
same,Time to 1000 mm^3 (days) Mean,[6]; 2.5 mg/kg Compound 7 qd x4,32.3 days
same,Time to 1000 mm^3 (days) Median,[6]; 2.5 mg/kg Compound 7 qd x4,32.4 days
same,Time to 1000 mm^3 (days) Mean,[6]; 5 mg/kg Compound 7 qd x4,32.1 days
same,Time to 1000 mm^3 (days) Median,[6]; 5 mg/kg Compound 7 qd x4,32.4 days
same,Time to 1000 mm^3 (days) Mean,[6]; 10 mg/kg Compound 7 qd x4,34.0 days
same,Time to 1000 mm^3 (days) Median,[6]; 10 mg/kg Compound 7 qd x4,33.4 days
same,Time to 1000 mm^3 (days) Median,[6]; 20 mg/kg Compound 7 qd x4,36.4 days
same,increase of therapeutic window,"[6]; MTA twice a day 8 days, Compound 7 daily 4 days, nu/nu tumor-bearing mice, folate-deficient diet",16 fold
same,Ki,GARFT,500 pM
same,Kd,[2],290 nM
same,cell growth inhibition as a single agent,"[7]; SK-MES-1, 168 h, FIG. 3",fully inhibited cell growth
same,cell number at the highest concentration of Compound 7 tested,"[7]; with 10 μM MTA, up to approximately 60 times the IC50 of Compound 7",about 75 % of control
"Nc1nc(N)c(SCCc2ccc(C(=O)N[C@@H](CCC(=O)O)C(=O)O)s2)c(=O)[nH]1 [Compound 1, N-[5-(2[(2,6-diamino-4(3H)-oxopyrimidin5yl)thio]ethyl)thieno-2-yl]-L-glutamic acid]",Ki (specific inhibitor of AICARFT),AICARFT,micromolar
same,factor by which MTA reduced the growth inhibitory activity,[1],3
Cc1cc(C(=O)N[C@@H](CCC(=O)O)C(=O)O)sc1CCCSc1c(N)nc(N)[nH]c1=O [Compound 2],Kd,[2],136 nM
"Cc1cc(C(=O)N[C@@H](CCC(=O)O)C(=O)O)sc1CC[C@@H]1CNc2nc(N)[nH]c(=O)c2S1 [Compound 4, 4-[2-(2-Amino-4-oxo-4,6,7,8-tetraydro-3H-pyrimido[5,4-b][1,4]thiazin-6-yl)-(R)-ethyl]-3-methyl-2-thienoyl-5-amino-L-glutamic acid]",Kd,[2],1 nM
"Cc1cc(C(=O)N[C@@H](CCC(=O)O)C(=O)O)sc1CC[C@H]1CNc2nc(N)[nH]c(=O)c2S1 [Compound 5, 4-[2-(2-Amino-4-oxo-4,6,7,8-tetrahydro-3H-pyrimido[5,4-b][1,4]thiazin-6-yl)-(S)-ethyl]-3-methyl-2-thienoyl-5-amino-L-glutamic acid]",Kd,[2],0.71 nM
"CSC[C@H]1O[C@@H](n2cnc3c(N)ncnc32)[C@H](O)[C@@H]1O [MTA, methylthioadenosine]",cell survival,[8],100%
same,Time to 1000 mm^3 (days) Mean,[6]; 50 mg/kg MTA bid x8 alone,22.6 days
same,Time to 1000 mm^3 (days) Median,[6]; 50 mg/kg MTA bid x8 alone,21.4 days
same,protection from Compound 7-induced cytotoxicity,[9],fully protected cells from Compound 7-induced cytotoxicity
"C[S+](CCCN)CC1OC(n2cnc3c(N)ncnc32)C(O)C1O (stereo not shown) [dcSAMe, decarboxylated S-adenosylmethionine]",cell survival,[8],100%
same,effect on cell survival,MTAP-deficient BxPC-3,increased cell survival by less than observed for the MTAP competent cells
"(2R, 3R, 4S, 5S)-2-(6- amino-9H-purin-9-yl)-5- {[(5-chloro-1H- yl)thio]methyl}tetrahydro- furan-3,4-diol [2(G)(5)]",MT-A—10: initial velocity as a percentage of the initial velocity with MTA as substrate,"Human MTAP; compound 10 uM, relative to MTA at 10 uM",5%
same,MT-A—50: initial velocity as a percentage of the initial velocity with MTA as substrate,"Human MTAP; compound 50 uM, relative to MTA at 50 uM",2%
